Results on 13 molecules are retold here after ChEMBL document CHEMBL1201862, “PubChem BioAssay data set” (2004).

Structures are written as SMILES. Structures can show the parent of a compound that is named as a salt.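 Assay format: 96-well plates, 48-hour exposure. At the GI50, growth is halved.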 Activity calls are given as the source filed them. No stated cut-off is given here; in the data, active = GI50 up to about 1.1 µM and inactive = higher. Bounds are passed on as bounds.

Some test systems named below: CCRF-CEM; SR; HT-29; DLD-1; HCT-116; HOP-62; LOX IMVI; OVCAR-4; HL-60; SN12C; UACC-257; 786-0; NCI-H460; TK-10; SNB-19; PC-3; NCI/ADR-RES; MDA-N; MDA-MB-231; Hs-578T.
What all share (experiment): NCI-60 cell line screen, 48 h

Take `Cn1cc(C(=O)c2ccccc2)c2ccccc2c1=O`: the GI50 in the assay on CCRF-CEM is > 100 µM (inactive); with SR, > 100 µM (inactive); in the assay with HT-29, > 100 µM (inactive); in the assay with DLD-1, > 100 µM (inactive); with HCT-116, > 100 µM (inactive); with HOP-62 it was 18.8 µM (inactive). The GI50 is > 100 µM (inactive) in the assay on LOX IMVI; > 100 µM (inactive) in the assay with OVCAR-4; 24.8 µM (inactive) in the assay with HL-60; > 100 µM (inactive) in the assay with SN12C; > 100 µM (inactive) in the assay with UACC-257; > 100 µM (inactive) in the assay on 786-0. Also, the GI50 in the assay on NCI-H460 is > 100 µM (inactive); in the assay with TK-10, 73.1 µM (inactive).

Regarding `CSC1=Nc2ccccc2N=C(c2ccc(Cl)cc2)C1`, the GI50 was 27.9 µM (inactive) in the assay with CCRF-CEM; 32.1 µM (inactive) with SR; 23 µM (inactive) in the assay on HT-29; 25.9 µM (inactive) in the assay on DLD-1; 26.5 µM (inactive) in the assay with HCT-116; > 100 µM (inactive) with HOP-62. Also, the GI50 with LOX IMVI was 27.1 µM (inactive); with OVCAR-4, > 100 µM (inactive); with SNB-19, > 100 µM (inactive); in the assay with HL-60 it was 35.3 µM (inactive); in the assay on SN12C, 40.5 µM (inactive); in the assay with UACC-257, 27.7 µM (inactive). The GI50 with 786-0 is 30.3 µM (inactive); in the assay on NCI-H460 it was 40.2 µM (inactive).

For the molecule `COc1cc(C(CN)N(C)C)cc(OC)c1OC` (centres undefined), the GI50 with CCRF-CEM was > 100 µM (inactive); in the assay with PC-3 it was > 100 µM (inactive); with SR it was 8.49 µM (inactive); in the assay on HT-29, > 100 µM (inactive); with NCI/ADR-RES, > 100 µM (inactive); in the assay with HCT-116 it was > 100 µM (inactive). The GI50 in the assay on HOP-62, in the assay on LOX IMVI, in the assay on MDA-N, in the assay with OVCAR-4, in the assay on SNB-19 and in the assay with HL-60 was > 100 µM (inactive) each time. Moreover, the GI50 in the assay on SN12C was 49.2 µM (inactive); in the assay with UACC-257, > 100 µM (inactive); with 786-0 it was > 100 µM (inactive); in the assay with MDA-MB-231, > 100 µM (inactive); in the assay on NCI-H460 it was > 100 µM (inactive); in the assay on TK-10, > 100 µM (inactive). For the same molecule, the GI50 with Hs-578T was > 100 µM (inactive).

`C=C(C#N)C1OCC2OC(C)(C)OC21` (centres undefined): the GI50 in the assay with CCRF-CEM is 16.5 µM (inactive); in the assay with HT-29 it was 34.9 µM (inactive); in the assay with DLD-1, 17.1 µM (inactive); in the assay on HCT-116, 18.7 µM (inactive); in the assay on HOP-62 it was > 100 µM (inactive); in the assay with LOX IMVI it was 15 µM (inactive). The GI50 in the assay with OVCAR-4 was 19.4 µM (inactive); in the assay on SNB-19, > 100 µM (inactive); with HL-60, 18.2 µM (inactive); in the assay with SN12C, 18.4 µM (inactive); in the assay on UACC-257, 15.5 µM (inactive); in the assay on 786-0, 20.2 µM (inactive). Moreover, the GI50 in the assay on NCI-H460 is 24.9 µM (inactive); in the assay with TK-10, 34 µM (inactive).

As for `CC1=NN(C(=O)CC(=O)Nc2ccccc2F)C(=O)C1/N=N/c1ccccc1[N+](=O)[O-]` (centres undefined), the GI50 in the assay with CCRF-CEM was 79.6 µM (inactive); in the assay with HT-29 it was > 100 µM (inactive); with DLD-1 it was 83 µM (inactive); in the assay on HCT-116 it was > 100 µM (inactive); with HOP-62, > 100 µM (inactive); in the assay with OVCAR-4 it was 70.6 µM (inactive). The GI50 with SNB-19 was > 100 µM (inactive); with SN12C it was > 100 µM (inactive); with UACC-257, 97.3 µM (inactive); with 786-0 it was > 100 µM (inactive); in the assay with TK-10, > 100 µM (inactive).

`CN(C)/C(=N/C(=O)Nc1ccccc1)SCc1ccccc1`: the GI50 in the assay on CCRF-CEM was > 100 µM (inactive); in the assay with HT-29 it was > 100 µM (inactive); with DLD-1 it was 65.3 µM (inactive); in the assay on HOP-62, > 100 µM (inactive); in the assay on LOX IMVI it was > 100 µM (inactive); in the assay with OVCAR-4 it was > 100 µM (inactive). Further, the GI50 in the assay on SNB-19, in the assay on HL-60, in the assay with SN12C, in the assay with UACC-257, with 786-0 and in the assay with TK-10 was > 100 µM (inactive) throughout.

On to `O=C(O)CC12C3C4C5C3C1C5C42` (centres undefined), for which the GI50 in the assay on CCRF-CEM, with HT-29, in the assay with DLD-1, in the assay with HCT-116, with HOP-62 and in the assay with LOX IMVI was > 100 µM (inactive) each time. Further, the GI50 in the assay with OVCAR-4, in the assay on SNB-19, with HL-60, in the assay with SN12C, in the assay on UACC-257 and in the assay with 786-0 was > 100 µM (inactive) throughout. The GI50 in the assay on NCI-H460 and in the assay on TK-10 was > 100 µM (inactive) throughout.

On to `CC(=O)OC1COC(n2ccc3cc(Br)c([N+](=O)[O-])cc32)C(OC(C)=O)C1OC(C)=O` (centres undefined), for which the GI50 with CCRF-CEM is 21.1 µM (inactive); in the assay on SR, 30.4 µM (inactive); with HT-29 it was 28.7 µM (inactive); in the assay on DLD-1 it was 44.3 µM (inactive); with HOP-62, 30.5 µM (inactive); with LOX IMVI it was 20.1 µM (inactive). For the same molecule, the GI50 with OVCAR-4 was > 10 µM (inactive); in the assay with SNB-19 it was 30 µM (inactive); in the assay on SN12C, 30.8 µM (inactive); in the assay with UACC-257, 19.2 µM (inactive); in the assay on 786-0, 33.3 µM (inactive); with NCI-H460, 22 µM (inactive). Further, the GI50 in the assay on TK-10 is 27 µM (inactive).

`CC1(Cl)C(=O)NC(=O)N(C2CC(N=[N+]=[N-])C(CO)O2)C1N=[N+]=[N-]` (centres undefined): the GI50 in the assay on CCRF-CEM, in the assay with HT-29, in the assay with DLD-1, in the assay on HOP-62, in the assay with LOX IMVI and in the assay with OVCAR-4 was > 100 µM (inactive) throughout. In addition, the GI50 with SNB-19, in the assay with HL-60, in the assay on SN12C, in the assay with UACC-257, with 786-0 and with NCI-H460 was > 100 µM (inactive) each time. In addition, the GI50 in the assay on TK-10 was > 100 µM (inactive).

Consider `COc1ccc2c(c1)O[C@@H]1[C@@H](OC3OC(CO)C(O)C(O)C3O)Oc3cc(OC)c(OC)cc3[C@]1(O)C2=O` (some centres undefined), for which the GI50 in the assay on CCRF-CEM, in the assay on PC-3, with SR, in the assay on HT-29, with NCI/ADR-RES and in the assay on HCT-116 was > 100 µM (inactive) each time. Further, the GI50 in the assay with HOP-62 was > 100 µM (inactive); in the assay with LOX IMVI it was > 100 µM (inactive); in the assay with MDA-N it was > 100 µM (inactive); in the assay on OVCAR-4, > 100 µM (inactive); in the assay with SNB-19 it was > 100 µM (inactive); with HL-60 it was 1.11 µM (active). The GI50 with SN12C, in the assay with UACC-257, with 786-0, in the assay on MDA-MB-231, in the assay on NCI-H460 and in the assay with TK-10 was > 100 µM (inactive) in each case. Besides, the GI50 in the assay with Hs-578T is > 100 µM (inactive).

Consider `O=C1OC(c2ccccc2)=N/C1=C/N1CCCC1C(=O)O` (centres undefined), for which the GI50 in the assay with CCRF-CEM, in the assay with HT-29, in the assay on DLD-1, in the assay with HCT-116, in the assay with HOP-62 and in the assay on LOX IMVI was > 100 µM (inactive) each time. Moreover, the GI50 in the assay on OVCAR-4, in the assay with SNB-19, in the assay on HL-60, with UACC-257, in the assay with 786-0 and in the assay with NCI-H460 was > 100 µM (inactive) in each case. Further, in the assay on TK-10, the GI50 is > 100 µM (inactive).

Take `CC(=O)O[C@H]1C(=O)[C@@]2(C)[C@H]([C@H](OC(=O)c3ccccc3)[C@]3(O)C[C@H](OC(=O)[C@H](O)[C@@H](NC(=O)c4ccccc4)c4ccccc4C)C(C)=C1C3(C)C)[C@]1(OC(C)=O)CO[C@@H]1C[C@@H]2O`: the GI50 in the assay on CCRF-CEM is 0.376 µM (active); in the assay on PC-3, 0.258 µM (active); in the assay with SR, 0.136 µM (active); in the assay with HT-29 it was 0.13 µM (active); with NCI/ADR-RES it was > 25 µM (inactive); with HCT-116 it was 0.177 µM (active). The GI50 in the assay on HOP-62 is 0.326 µM (active); with LOX IMVI, 0.631 µM (active); in the assay with MDA-N, 0.0632 µM (active); in the assay on OVCAR-4, 3.78 µM (inactive); in the assay on SNB-19, 1.27 µM (inactive); in the assay on HL-60, 0.0659 µM (active). For the same molecule, the GI50 was 2.11 µM (inactive) in the assay on SN12C; 0.718 µM (active) in the assay on UACC-257; 1.64 µM (inactive) with 786-0; 3.18 µM (inactive) in the assay on MDA-MB-231; 0.811 µM (active) with NCI-H460; 2.71 µM (inactive) in the assay on TK-10. Further, the GI50 in the assay on Hs-578T was 0.222 µM (active).

Turning to `CNC(C)Cc1ccccc1OC` (centres undefined) [METHOXYPHENAMINE HYDROCHLORIDE], the GI50 in the assay with CCRF-CEM, with HT-29, with DLD-1, with HCT-116, in the assay on HOP-62 and in the assay on LOX IMVI was > 100 µM (inactive) throughout. Further, the GI50 in the assay with OVCAR-4, in the assay with SNB-19, with HL-60, with SN12C, with UACC-257 and in the assay on 786-0 was > 100 µM (inactive) each time. Further, the GI50 in the assay with NCI-H460 and in the assay on TK-10 was > 100 µM (inactive) each time.
